Assay results reported in patent US8946280B2, “Plant growth regulating compounds” (Syngenta Participations AG, priority 2010, dated 2015).

Columns and labels:
[1] = tested on: Orobanche cumana Wallr. seeds (race F; seed lots IN146 and IN153); assay: Germination of preconditioned Orobanche cumana seeds on glass fiber filter paper in petri dishes; format: in vivo; details: mean, N = 5 × 100 seeds, re-transformed data; for Germination (%): seed lot IN146 raceF, examined 10 days later
Protocol: The effect of compounds of formula (I) on germination of Orobanche cumana Wallr. seeds was evaluated on glass fiber filter paper (GFFP) in petri dishes. Seeds were preconditioned at moisture and suitable temperature to become responsive to the specific chemical germination stimulants.
Test compounds were dissolved in DMSO (10 000 mg 1^−1) and stored at room temperature in a desiccators with desiccants. The stock solutions were dissolved with deionised water to the appropriate final test concentration.
Seeds of O. cumana race ‘F’ were collected from sunflower fields in Manzanilla (Seville, Spain) in 2006 (seed lot IN146) and 2008 (seed lot IN153) and stored at room temperature. To separate seeds from heavy organic debris, a modified sucrose floatation technique as described by Hartman & Tanimonure (Plant Disease (1991), 75, p. 494) was applied. Seeds were filled into a separation funnel and stirred in water. When seeds floated to the surface, the water fraction containing heavy debris was discarded. Seeds were re-suspended in 2.5M sucrose solution (specific gravity of 1.20) and heavy debris was allowed to settle down for 60 min. After removing debris, seeds were disinfected in 1% sodium hypochlorite solution and 0.025% (v/v) Tween 20 for 2 min. The seeds were decanted onto two layers of cheesecloth, rinsed with sterile deionised water and re-suspended in sterile deionised water. Two ml of the seed suspension containing approximately 150-400 seeds were spread evenly on two layers of sterile glass fiber filter paper disc ([…]) in Petri dishes (Ø9 cm). After wetting the discs with 3 ml sterile deionised water, petri dishes were sealed with parafilm. Seeds were incubated for 10 days at 20° C. in the dark for seed conditioning. The upper disc with conditioned seeds was briefly dried, transferred to a petri dish lined with a dry GFFP disc, and wetted with 6 ml of the appropriate test solution. The compounds of formula (I) were tested at concentrations of 0.001, 0.01, and 0.1 mg 1^−1. The strigolactone analogue GR24 (commercially available as a mixture of isomers) was included as positive control and 0.001% DMSO as negative control. All treatments were tested in five replicates. Seeds were re-incubated at 20° C. in the dark and examined for germination 10 days later. The radicles of germinated seeds were stained for 5 min with blue ink (MIGROS, Switzerland) in 5% acetic acid according to Long et al. (Seed Science Research (2008), 18, p. 125). After staining, seeds were scanned using a flatbed scanner with an optical resolution of 1200 dpi (PULSTEK, OpticPro ST28) or photographed using a camera stand mounted with a digital SLR camera (Canon EOS 5D). Germination of 100 seeds per replicate was evaluated on digital images. Seeds were considered germinated when the radicle protruded from the seed coat. SAS statistical software package version 9.1 was used for analysis of variance (GLM procedure) and multiple comparisons of treatment means (Sidak t-test) based on arcsine transformed percentage germination data.

[2] = Table 6, seed lot IN146, race F, 0.001 mg l^−1
[3] = Table 6, seed lot IN146, race F, 0.01 mg l^−1
[4] = Table 6, seed lot IN146, race F, 0.1 mg l^−1
[5] = Table 8, seed lot IN153, race F, 0.001 mg l^−1
[6] = Table 8, seed lot IN153, race F, 0.01 mg l^−1
[7] = Table 8, seed lot IN153, race F, 0.1 mg l^−1

GR-24
Germination % at concentration of 0.001 mg l^−1 ([1]; Table 5, seed lot IN146, race F, 0.001 mg l^−1): 21.2 de %
Germination % at concentration of 0.01 mg l^−1 ([1]; Table 5, seed lot IN146, race F, 0.01 mg l^−1): 33.3 cd %
Germination % at concentration of 0.1 mg l^−1 ([1]; Table 5, seed lot IN146, race F, 0.1 mg l^−1): 45.9 bcd %
Germination % at concentration of 0.001 mg l^−1 [1, 2]: 17.5 d %
Germination % at concentration of 0.01 mg l^−1 [1, 3]: 61.4 c %
Germination % at concentration of 0.1 mg l^−1 [1, 4]: 86.6 ab %
Germination % at concentration of 0.001 mg l^−1 ([1]; Table 7, seed lot IN153, race F, 0.001 mg l^−1): 89.5 ab %
Germination % at concentration of 0.01 mg l^−1 ([1]; Table 7, seed lot IN153, race F, 0.01 mg l^−1): 97.2 a %
Germination % at concentration of 0.1 mg l^−1 ([1]; Table 7, seed lot IN153, race F, 0.1 mg l^−1): 96.2 ab %
Germination % at concentration of 0.001 mg l^−1 [1, 5]: 84.1 abcde %
Germination % at concentration of 0.01 mg l^−1 [1, 6]: 94.1 abc %
Germination % at concentration of 0.1 mg l^−1 [1, 7]: 97.0 a %

CC1=CC(OC=C2C(=O)NC3c4ccc(F)cc4CC23)OC1=O (stereo not shown) [Compound A9]
Germination % at concentration of 0.001 mg l^−1 [1, 2]: 90.2 ab %
Germination % at concentration of 0.01 mg l^−1 [1, 3]: 85.2 abc %
Germination % at concentration of 0.1 mg l^−1 [1, 4]: 71.5 bc %

CC(=O)N1C(=O)C(=COC2C=C(C)C(=O)O2)C2Cc3ccccc3C21 (stereo not shown) [Compound A22]
Germination % at concentration of 0.001 mg l^−1 [1, 5]: 87.6 abc %
Germination % at concentration of 0.01 mg l^−1 [1, 6]: 95.3 ab %
Germination % at concentration of 0.1 mg l^−1 [1, 7]: 95.7 ab %

CCOC(=O)N1C(=O)C(=COC2C=C(C)C(=O)O2)C2Cc3ccccc3C21 (stereo not shown) [Compound A21]
Germination % at concentration of 0.001 mg l^−1 [1, 5]: 83.7 abcde %
Germination % at concentration of 0.01 mg l^−1 [1, 6]: 93.4 abc %
Germination % at concentration of 0.1 mg l^−1 [1, 7]: 96.7 a %

CC1=CC(O/C=C2/C(=O)N(C)C3c4ccccc4C[C@H]23)OC1=O (stereo in doubt) [Compound P3, 1-Methyl-(3aR*,8bS*,5′R*)-3-[1-(4-Methyl-5-oxo-2,5-dihydro-furan-2-yloxy)-meth-(E)-ylidene]-3,3a,4,8b-tetrahydro-1H-indeno[1,2-b]pyrrol-2-one]
Germination (%) ([1]; 0.001 mg l^−1): 68%
Germination (%) ([1]; 0.01 mg l^−1): 82.4%
Germination (%) ([1]; 0.1 mg l^−1): 84%
melting point: 130 to 135 °C
